Results as given in US20170066797A1, “WITHAFERIN A ANALOGS AND USES THEREOF” (Whitehead Institute for Biomedical Research, priority 2008, published 2017).

Columns and labels:
Hsp72, Hsp27 = test: Heat-shock protein induction in organs after IP administration; assay type: in vivo, mice; conditions: IP 18 mg/kg/day, 16 hours after last injection, FIG. 10
Procedure: FIG. 10. Heat-shock protein induction following Withaferin A (WA) administration to mice. WA was formulated in DMSO/Cremophor/Saline vehicle and injected intraperitoneally (IP) at a total dose of 18 mg/kg/day, either as a single injection (WA ×1) or divided in two 9 mg/kg injections (WA ×2) spaced 6 hrs apart. Control animals received an equal volume of vehicle alone as a single injection. Mice were sacrificed 16 hours after the last injection, organs harvested and protein lysates prepared for immunoblotting. Equal loading of samples was confirmed by staining membranes for total protein (left panels). The relative tissue levels of Hsp72, Hsp27 and Annexin 2 (a putative target of Withaferin A) were determined by probing with specific antibodies as indicated. Note the robust induction of heat shock protein levels in spleen (Annexin 2 positive), but not normal brain (Annexin 2 negative) associated with prior Withaferin A exposure.

[1] = system: minimal heat shock response element derived from the promoter region of the Hsp70B gene; test: Heat shock reporter (EGFP) induction; assay type: cell-based; conditions: overnight exposure, FIG. 8
Procedure: FIG. 8. Heat shock reporter induction measured by micro plate fluorimeter. Reporter cells stably transduced with a plasmid encoding enhanced green fluorescent protein (EGFP) under the control of a minimal heat shock response element were exposed to 2,3-dihydrowithaferin A-3β-O-sulfate (WA-SO4) or withaferin A (WA) at the indicated concentrations overnight. Relative fluorescence units (RFU) per well were determined as a measure of reporter activation. Each point represents the mean of nine determinations from three independent experiments.
Immortalized mouse embryo fibroblasts derived from homozygous Hsf1 knockout mice or their wild type littermates were exposed overnight to equitoxic concentrations of 1 or the known heat shock-inducing Hsp90 inhibitor gendanamycin. Whole cell lysates were prepared in non-ionic detergent buffer and immunoblotted for relative levels of Hsp72, a highly inducible member of the Hsp70 family of molecular chaperones, using monoclonal antibody C92F3A-5 (StressMarq Biosciences, Victoria, BC). Reactivity was detected using peroxidase-conjugated secondary antibody and chemiluminescent detection. To evaluate the relative ability of compounds to induce a heat shock response at the transcriptional level, a reporter cell line was used as previously described (Turbyville, et al., J. Nat. Prod. (2006) 69: 178-184, incorporated herein by reference). […]

[2] = system: Ewing's sarcoma cells (CHP-100); conditions: 72 hours, MTT, FIG. 5
Source text: Relative viable cell number was quantified by MTT assay. Results are presented as a percentage compared to wells exposed to DMSO alone. […] Points: mean of triplicate determinations; Error bars: s.d.

CC1=C(CO)C(=O)OC([C@@H](C)C2CCC3C4C[C@H]5O[C@]56[C@@H](O)C=CC(=O)[C@]6(C)C4CC[C@@]32C)C1 (stereo partly shown) [Withaferin A]
heat shock response induction in brain (Hsp72, Hsp27; annexin II absent): not in brain cells | heat shock response induction in spleen (Hsp72, Hsp27; annexin II present): induces the heat shock response in spleen cells | heat shock reporter induction [1]: response can be induced at compound exposures compatible with cell survival | inhibition of tumor cell growth in vitro, CHP-100 [2]: inhibit tumor growth in Ewing's sarcoma
